Laboratory results as given in patent US20260285850A1, “SUBSTITUTED OXAZOLIDINONES AND IMIDAZOLINONES AS HERBICIDES” (FMC CORPORATION, priority 2023, published 2026).

How the values were obtained:
Assay type in all cases: in vivo
[1] = system: green foxtail (Setaria viridis); experiment: Test A preemergence soil spray, visual injury rating 0-100; conditions: 10 days; for Foxtail, Green plant response rating: 16 g ai/ha, 0 to 100 scale
Outline: (§1)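 Grow plants in loam soil blended with sand. Apply formulated compound (non-phytotoxic solvent, surfactant) as a directed soil spray before emergence, or to plants at the one- to two-leaf stage after emergence. Hold in greenhouse 10 days, then rate injury visually versus untreated controls on a 0-100 scale.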

[2] = system: ryegrass, Italian (italian ryegrass, Lolium multiflorum); experiment: as above; conditions: 10 days; for Ryegrass, Italian plant response rating: 16 g ai/ha, 0 to 100 scale
Outline: as §1

[3] = system: blackgrass (Alopecurus myosuroides); experiment: as above; conditions: 10 days; for Blackgrass plant response rating: 16 g ai/ha, 0 to 100 scale
Outline: as §1

[4] = system: ragweed (common ragweed, Ambrosia artemisiifolia); experiment: as above; conditions: 10 days; for Ragweed plant response rating: 16 g ai/ha, 0 to 100 scale
Outline: as §1

[5] = system: barnyardgrass (Echinochloa crus-galli); experiment: as above; conditions: 10 days; for Barnyardgrass plant response rating: 16 g ai/ha, 0 to 100 scale
Outline: as §1

[6] = system: corn (Zea mays); experiment: as above; conditions: 10 days; for Corn plant response rating: 16 g ai/ha, 0 to 100 scale
Outline: as §1

[7] = system: oat, wild (wild oat, Avena fatua); experiment: as above; conditions: 10 days; for Oat, Wild plant response rating: 16 g ai/ha, 0 to 100 scale
Outline: as §1

[8] = system: palmer (palmer amaranth, palmer pigweed, Amaranthus palmeri); experiment: as above; conditions: 10 days; for Pigweed, Palmer plant response rating: 16 g ai/ha, 0 to 100 scale
Outline: as §1

[9] = system: wheat (Triticum aestivum); experiment: as above; conditions: 10 days; for Wheat plant response rating: 16 g ai/ha, 0 to 100 scale
Outline: as §1

[10] = system: soybean (Glycine max); experiment: as above; conditions: 10 days; for Soybean plant response rating: 16 g ai/ha, 0 to 100 scale
Outline: as §1

[11] = system: kochia (Bassia scoparia); experiment: as above; conditions: 10 days; for Kochia plant response rating: 16 g ai/ha, 0 to 100 scale
Outline: as §1

[12] = system: green foxtail (Setaria viridis); experiment: Test A postemergence application, visual injury rating 0-100; conditions: for Foxtail, Green plant response rating (0 to 100 scale): Postemergence, 16 g ai/ha, greenhouse 10 days, 0 no effect, 100 complete control
Outline: as §1

[13] = system: ryegrass, Italian (italian ryegrass, Lolium multiflorum); experiment: as above; conditions: for Ryegrass, Italian plant response rating (0 to 100 scale): Postemergence, 16 g ai/ha, greenhouse 10 days, 0 no effect, 100 complete control
Outline: as §1

[14] = system: blackgrass (Alopecurus myosuroides); experiment: as above; conditions: for Blackgrass plant response rating (0 to 100 scale): Postemergence, 16 g ai/ha, greenhouse 10 days, 0 no effect, 100 complete control
Outline: as §1

[15] = system: horseweed (Erigeron canadensis); experiment: as above; conditions: for Horseweed plant response rating (0 to 100 scale): Postemergence, 16 g ai/ha, greenhouse 10 days, 0 no effect, 100 complete control
Outline: as §1

[16] = system: ragweed (common ragweed, Ambrosia artemisiifolia); experiment: as above; conditions: for Ragweed plant response rating (0 to 100 scale): Postemergence, 16 g ai/ha, greenhouse 10 days, 0 no effect, 100 complete control
Outline: as §1

[17] = system: barnyardgrass (Echinochloa crus-galli); experiment: as above; conditions: for Barnyardgrass plant response rating (0 to 100 scale): Postemergence, 16 g ai/ha, greenhouse 10 days, 0 no effect, 100 complete control
Outline: as §1

[18] = system: corn (Zea mays); experiment: as above; conditions: for Corn plant response rating (0 to 100 scale): Postemergence, 16 g ai/ha, greenhouse 10 days, 0 no effect, 100 complete control
Outline: as §1

[19] = system: galium (catchweed bedstraw, Galium aparine); experiment: as above; conditions: for Galium plant response rating (0 to 100 scale): Postemergence, 16 g ai/ha, greenhouse 10 days, 0 no effect, 100 complete control
Outline: as §1

[20] = system: oat, wild (wild oat, Avena fatua); experiment: as above; conditions: for Oat, Wild plant response rating (0 to 100 scale): Postemergence, 16 g ai/ha, greenhouse 10 days, 0 no effect, 100 complete control
Outline: as §1

[21] = system: palmer (palmer amaranth, palmer pigweed, Amaranthus palmeri); experiment: as above; conditions: for Pigweed, Palmer plant response rating (0 to 100 scale): Postemergence, 16 g ai/ha, greenhouse 10 days, 0 no effect, 100 complete control
Outline: as §1

[22] = system: wheat (Triticum aestivum); experiment: as above; conditions: for Wheat plant response rating (0 to 100 scale): Postemergence, 16 g ai/ha, greenhouse 10 days, 0 no effect, 100 complete control
Outline: as §1

[23] = system: soybean (Glycine max); experiment: as above; conditions: for Soybean plant response rating (0 to 100 scale): Postemergence, 16 g ai/ha, greenhouse 10 days, 0 no effect, 100 complete control
Outline: as §1

[24] = system: kochia (Bassia scoparia); experiment: as above; conditions: for Kochia plant response rating (0 to 100 scale): Postemergence, 16 g ai/ha, greenhouse 10 days, 0 no effect, 100 complete control
Outline: as §1

[25] = system: ducksalad (Heteranthera limosa); experiment: Test B flooded paddy test, visual plant response rating 0-100; conditions: 250 g ai/ha, Flood, applied to paddy water, evaluated after 13 days
Outline: (§2)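 Visual evaluation after 13 days. Water-applied treatment, 3 cm flood depth held constant, plants at 2-leaf stage at treatment.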

[26] = system: sedge, umbrella (small-flower umbrella sedge, Cyperus difformis); experiment: as above; conditions: 250 g ai/ha, Flood, applied to paddy water, evaluated after 13 days
Outline: as §2

[27] = system: rice (Oryza sativa); experiment: as above; conditions: 250 g ai/ha, Flood, applied to paddy water, evaluated after 13 days
Outline: as §2

[28] = system: barnyardgrass (Echinochloa crusgalli); experiment: as above; conditions: 250 g ai/ha, Flood, applied to paddy water, evaluated after 13 days
Outline: as §2

[29] = 62 g ai/ha, 0 = no effect, 100 = complete control
[30] = 62 g ai/ha, postemergence, 10 days, 0 = no effect, 100 = complete control

CC1(C(=O)NC2CC(C(=O)OCC(F)(F)F)C2)CN(c2cc(F)cc(F)c2)C(=O)O1 (centres unmarked) [Compound 121]
Foxtail, Green plant response rating [1]: 0 | Foxtail, Green plant response rating (0-100) [1, 29]: 90 | Ryegrass, Italian plant response rating [2]: 50 | Ryegrass, Italian plant response rating (0-100) [2, 29]: 90 | Blackgrass plant response rating [3]: 50 | Blackgrass plant response rating (0-100) [3, 29]: 90 | Ragweed plant response rating [4]: 0 | Ragweed plant response rating (0-100) [4, 29]: 0 | Barnyardgrass plant response rating [5]: 0 | Barnyardgrass plant response rating (0-100) [5, 29]: 80 | Corn plant response rating [6]: 20 | Corn plant response rating (0-100) [6, 29]: 90 | Oat, Wild plant response rating [7]: 90 | Oat, Wild plant response rating (0-100) [7, 29]: 90 | Pigweed, Palmer plant response rating [8]: 0 | Pigweed, Palmer plant response rating (0-100) [8, 29]: 70 | Wheat plant response rating [9]: 40 | Wheat plant response rating (0-100) [9, 29]: 80 | Soybean plant response rating [10]: 0 | Soybean plant response rating (0-100) [10, 29]: 0 | Kochia plant response rating [11]: 0 | Kochia plant response rating (0-100) [11, 29]: 70 | Foxtail, Green plant response rating (0-100) [12, 30]: 90 | Foxtail, Green plant response rating (0 to 100 scale) [12]: 70 | Ryegrass, Italian plant response rating (0-100) [13, 30]: 70 | Ryegrass, Italian plant response rating (0 to 100 scale) [13]: 20 | Blackgrass plant response rating (0-100) [14, 30]: 100 | Blackgrass plant response rating (0 to 100 scale) [14]: 90 | Horseweed plant response rating (0-100) [15, 30]: 10 | Horseweed plant response rating (0 to 100 scale) [15]: 0 | Ragweed plant response rating (0-100) [16, 30]: 0 | Ragweed plant response rating (0 to 100 scale) [16]: 0 | Barnyardgrass plant response rating (0-100) [17, 30]: 100 | Barnyardgrass plant response rating (0 to 100 scale) [17]: 60 | Corn plant response rating (0-100) [18, 30]: 100 | Corn plant response rating (0 to 100 scale) [18]: 100 | Galium plant response rating (0-100) [19, 30]: 60 | Galium plant response rating (0 to 100 scale) [19]: 30 | Oat, Wild plant response rating (0-100) [20, 30]: 90 | Oat, Wild plant response rating (0 to 100 scale) [20]: 40 | Pigweed, Palmer plant response rating (0-100) [21, 30]: 70 | Pigweed, Palmer plant response rating (0 to 100 scale) [21]: 0 | Wheat plant response rating (0-100) [22, 30]: 90 | Wheat plant response rating (0 to 100 scale) [22]: 90 | Soybean plant response rating (0-100) [23, 30]: 70 | Soybean plant response rating (0 to 100 scale) [23]: 50 | Kochia plant response rating (0-100) [24, 30]: 70 | Kochia plant response rating (0 to 100 scale) [24]: 10 | Plant response rating, Ducksalad (0 to 100 scale, 0 is no effect and 100 is complete control) [25]: 0 | Plant response rating, Sedge, Umbrella (0 to 100 scale, 0 is no effect and 100 is complete control) [26]: 0 | Plant response rating, Rice (0 to 100 scale, 0 is no effect and 100 is complete control) [27]: 0 | Plant response rating, Barnyardgrass (0 to 100 scale, 0 is no effect and 100 is complete control) [28]: 0

CC1(C(=O)NC2C=CC(C(=O)O)C2)CN(c2cc(F)c(F)c(F)c2)C(=O)O1 (centres unmarked) [Compound 123]
Foxtail, Green plant response rating [1]: 0 | Ryegrass, Italian plant response rating [2]: 0 | Blackgrass plant response rating [3]: 0 | Ragweed plant response rating [4]: 0 | Barnyardgrass plant response rating [5]: 0 | Corn plant response rating [6]: 0 | Oat, Wild plant response rating [7]: 10 | Pigweed, Palmer plant response rating [8]: 0 | Wheat plant response rating [9]: 80 | Soybean plant response rating [10]: 0 | Kochia plant response rating [11]: 0 | Foxtail, Green plant response rating (0 to 100 scale) [12]: 30 | Ryegrass, Italian plant response rating (0 to 100 scale) [13]: 60 | Blackgrass plant response rating (0 to 100 scale) [14]: 90 | Horseweed plant response rating (0 to 100 scale) [15]: 0 | Ragweed plant response rating (0 to 100 scale) [16]: 0 | Barnyardgrass plant response rating (0 to 100 scale) [17]: 60 | Corn plant response rating (0 to 100 scale) [18]: 70 | Galium plant response rating (0 to 100 scale) [19]: 30 | Oat, Wild plant response rating (0 to 100 scale) [20]: 60 | Pigweed, Palmer plant response rating (0 to 100 scale) [21]: 20 | Wheat plant response rating (0 to 100 scale) [22]: 80 | Soybean plant response rating (0 to 100 scale) [23]: 60 | Kochia plant response rating (0 to 100 scale) [24]: 0 | Plant response rating, Ducksalad (0 to 100 scale, 0 is no effect and 100 is complete control) [25]: 55 | Plant response rating, Sedge, Umbrella (0 to 100 scale, 0 is no effect and 100 is complete control) [26]: 0 | Plant response rating, Rice (0 to 100 scale, 0 is no effect and 100 is complete control) [27]: 10 | Plant response rating, Barnyardgrass (0 to 100 scale, 0 is no effect and 100 is complete control) [28]: 0
